Assay results: publication PMC10969742, “A Phase I Study of the Oral Dual-Acting Pan-PI3K/mTOR Inhibitor Bimiralisib in Patients with Advanced Solid Tumors” (Cancers, 2024)
Like-named read-outs stand apart in the source and are kept apart here.

Test: Plasma pharmacokinetics of bimiralisib, non-compartmental analysis (LC-MS)
Type: in vivo, human
Settings: for AUC(0-t) / Cmax / Tmax: human, plasma, oral; for Cmax: read-out: Cmax Mean (%CV); for Tmax: read-out: Tmax Median, (Range)
Procedure: Blood samples were collected to enable full PK profiling of bimiralisib. The PK samples were taken pre-dose and at 0.5, 1, 2, 4, 6, 8, and 24 h post-dosing in the three schedules, with additional timepoints depending on the schedule (48 h in the continuous schedule, 12, 16, and 48 h in intermittent schedule A and 12, 16, and 72 h in intermittent schedule B). PK sampling was repeated on cycle 1 Day 8 (continuous schedule: pre-dose and 1 h post-dose; intermittent schedules A and B: pre-dose and 0.5, 1, 2, 4, 6, 8, and 24 h post-dose), on cycle 1 Day 15 (continuous schedule: pre-dose and 0.5, 1, 2, 4, 6 and 8 h post-dose; intermittent schedules A and B: pre-dose and 4 h post-dose), and on cycle 2 Day 1 (continuous dosing: pre-dose and 1 h post-dose). Samples were sent to a central laboratory for analysis using liquid-chromatography mass spectrometry. The pharmacokinetics of bimiralisib were determined by non-compartmental analysis. Area under the concentration vs. time curve (AUC) was calculated using the linear up log down trapezoidal method. Accumulation was calculated as the ratio of cycle 1 on Day 15 AUC0–8h versus cycle 1 on Day -3 AUC0–8h.

[1] = 80 mg, Continuous Dosing, 80 mg, Day 15, 7 patients
[2] = 80 mg, Continuous Dosing, 80 mg, Day -3, 11 patients
[3] = 80 mg, Intermittent Dose Schedule A, 80 mg, Day 8, 3 patients
[4] = 80 mg, Intermittent Dose Schedule A, 80 mg, Day -3, 4 patients
[5] = 80 mg, Intermittent Dose Schedule B, 80 mg, Day 1, 4 patients
[6] = 80 mg, Intermittent Dose Schedule B, 80 mg, Day 8, 4 patients
[7] = 100 mg, Continuous Dosing, 100 mg, Day 1, 5 patients
[8] = 100 mg, Continuous Dosing, 100 mg, Day 15, 2 patients
[9] = 100 mg, Intermittent Dose Schedule A, 100 mg, Day -3, 4 patients
[10] = 100 mg, Intermittent Dose Schedule B, 100 mg, Day 1, 7 patients
[11] = 100 mg, Intermittent Dose Schedule B, 100 mg, Day 8, 6 patients
[12] = 120 mg, Continuous Dosing, 120 mg, Day 1, 5 patients
[13] = 120 mg, Continuous Dosing, 120 mg, Day 15, 1 patient
[14] = 120 mg, Intermittent Dose Schedule A, 120 mg, Day 8, 3 patients

In the case of `Nc1cc(C(F)(F)F)c(-c2nc(N3CCOCC3)nc(N3CCOCC3)n2)cn1` [bimiralisib, 5-(4,6-Dimorpholino-1,3,5-triazin-2-yl)-4-(trifluoromethyl)pyridin-2-amine], the “Dose proportionality of concentration-time data” value (all dosing schedules, 80–200 mg) is reported as “not proportional to doses”, the “Median half-life, calculated from accumulation” value (continuous schedule, range < 6–146 h) is reported as 39.5 h and the “Median accumulation ratio (cycle 1 Day 15 AUC0–8h versus Day -3 AUC0–8h)” value (continuous schedule, range, <1.0–9.3) is reported as 2.9. The AUC(0-t) (80 mg, Continuous Dosing, 80 mg, Day 15, 7 patients, read-out: AUC0–8 Geometric Mean (%CV)) was 4090 ng·h/mL, the Cmax [1] was 766 ng/mL and the Tmax [1] was 1 h. It also gave an AUC(0-t) (80 mg, Continuous Dosing, 80 mg, Day -3, 11 patients, read-out: AUC0–8 Geometric Mean (%CV)) of 1530 ng·h/mL, an AUC(0-t) (80 mg, Continuous Dosing, 80 mg, Day -3, 11 patients, read-out: AUC0–24 Geometric Mean (%CV)) of 4290 ng·h/mL and a Cmax [2] of 407 ng/mL. It also gave a Tmax [2] of 2 h, an AUC(0-t) (80 mg, Intermittent Dose Schedule A, 80 mg, Day 8, 3 patients, read-out: AUC0–8 Geometric Mean (%CV)) of 2350 ng·h/mL and a Cmax [3] of 614 ng/mL. For the same compound, the Tmax [3] was 1 h, the AUC(0-t) (80 mg, Intermittent Dose Schedule A, 80 mg, Day 8, n = 1, read-out: AUC0–24 Geometric Mean (%CV)) was 6740 ng·h/mL and the AUC(0-t) (80 mg, Intermittent Dose Schedule A, 80 mg, Day -3, 4 patients, read-out: AUC0–8 Geometric Mean (%CV)) was 1580 ng·h/mL. It also gave an AUC(0-t) (80 mg, Intermittent Dose Schedule A, 80 mg, Day -3, 4 patients, read-out: AUC0–24 Geometric Mean (%CV)) of 3540 ng·h/mL, a Cmax [4] of 410 ng/mL and a Tmax [4] of 1.5 h. For the same compound, the AUC(0-t) (80 mg, Intermittent Dose Schedule B, 80 mg, Day 1, 4 patients, read-out: AUC0–8 Geometric Mean (%CV)) was 1680 ng·h/mL, the AUC(0-t) (80 mg, Intermittent Dose Schedule B, 80 mg, Day 1, 4 patients, read-out: AUC0–24 Geometric Mean (%CV)) was 4000 ng·h/mL and the Cmax [5] was 341 ng/mL. The Tmax [5] was 3 h, the AUC(0-t) (80 mg, Intermittent Dose Schedule B, 80 mg, Day 8, 4 patients, read-out: AUC0–8 Geometric Mean (%CV)) was 2600 ng·h/mL and the Cmax [6] was 681 ng/mL. It also gave a Tmax [6] of 1.5 h, an AUC(0-t) (80 mg, Intermittent Dose Schedule B, 80 mg, Day 8, n = 3, read-out: AUC0–24 Geometric Mean (%CV)) of 6350 ng·h/mL and an AUC(0-t) (100 mg, Continuous Dosing, 100 mg, Day 1, 5 patients, read-out: AUC0–8 Geometric Mean (%CV)) of 1690 ng·h/mL. For the same compound, the AUC(0-t) (100 mg, Continuous Dosing, 100 mg, Day 1, 5 patients, read-out: AUC0–24 Geometric Mean (%CV)) was 4660 ng·h/mL, the Cmax [7] was 441 ng/mL and the Tmax [7] was 1.7 h. It also gave an AUC(0-t) (100 mg, Continuous Dosing, 100 mg, Day 15, 2 patients, read-out: AUC0–8 Geometric Mean (%CV)) of 5750 ng·h/mL, a Cmax [8] of 1110 ng/mL and a Tmax [8] of 2 h. It also gave an AUC(0-t) (100 mg, Intermittent Dose Schedule A, 100 mg, Day 8, 3 patients, read-out: AUC0–8 Geometric Mean (%CV)) of 3910 ng·h/mL, a Tmax (100 mg, Intermittent Dose Schedule A, 100 mg, Day 8, 3 patients) of 1 h and an AUC(0-t) (100 mg, Intermittent Dose Schedule A, 100 mg, Day 8, n = 2, read-out: AUC0–24 Geometric Mean (%CV)) of 12400 ng·h/mL. The AUC(0-t) (100 mg, Intermittent Dose Schedule A, 100 mg, Day -3, 4 patients, read-out: AUC0–8 Geometric Mean (%CV)) was 1970 ng·h/mL, the AUC(0-t) (100 mg, Intermittent Dose Schedule A, 100 mg, Day -3, 4 patients, read-out: AUC0–24 Geometric Mean (%CV)) was 4170 ng·h/mL and the Cmax [9] was 543 ng/mL. The Tmax [9] was 1 h, the AUC(0-t) (100 mg, Intermittent Dose Schedule B, 100 mg, Day 1, 7 patients, read-out: AUC0–8 Geometric Mean (%CV)) was 1920 ng·h/mL and the AUC(0-t) (100 mg, Intermittent Dose Schedule B, 100 mg, Day 1, 7 patients, read-out: AUC0–24 Geometric Mean (%CV)) was 4520 ng·h/mL. The Cmax [10] was 562 ng/mL, the Tmax [10] was 2 h and the AUC(0-t) (100 mg, Intermittent Dose Schedule B, 100 mg, Day 8, 6 patients, read-out: AUC0–8 Geometric Mean (%CV)) was 2880 ng·h/mL. For the same compound, the Cmax [11] was 714 ng/mL, the Tmax [11] was 1.5 h and the AUC(0-t) (100 mg, Intermittent Dose Schedule B, 100 mg, Day 8, n = 4, read-out: AUC0–24 Geometric Mean (%CV)) was 6200 ng·h/mL. For the same compound, the AUC(0-t) (120 mg, Continuous Dosing, 120 mg, Day 1, 5 patients, read-out: AUC0–8 Geometric Mean (%CV)) was 2990 ng·h/mL, the AUC(0-t) (120 mg, Continuous Dosing, 120 mg, Day 1, 5 patients, read-out: AUC0–24 Geometric Mean (%CV)) was 7600 ng·h/mL and the Cmax [12] was 876 ng/mL. For the same compound, the Tmax [12] was 2 h, the AUC(0-t) (120 mg, Continuous Dosing, 120 mg, Day 15, 1 patient, read-out: AUC0–8 Geometric Mean (%CV)) was 6430 ng·h/mL and the Cmax [13] was 982 ng/mL. For the same compound, the Tmax [13] was 8 h, the AUC(0-t) (120 mg, Intermittent Dose Schedule A, 120 mg, Day 8, 3 patients, read-out: AUC0–8 Geometric Mean (%CV)) was 3710 ng·h/mL and the AUC(0-t) (120 mg, Intermittent Dose Schedule A, 120 mg, Day 8, 3 patients, read-out: AUC0–24 Geometric Mean (%CV)) was 8940 ng·h/mL. For the same compound, the Cmax [14] was 872 ng/mL and the Tmax [14] was 1 h.
